Assay results reported in patent US8129366B2, “VLA-4 inhibitory drug” (Daiichi Sankyo Company, Limited, priority 2005, dated 2012).
In brackets after ≈: the same amount, converted by molar mass.

Key:
[1] = Solubility test in first and second liquid of the Japanese Pharmacopoeia
Method: The solubilities of the substance under test in the first liquid (JP1, pH=1.2) of the Japanese Pharmacopoeia and the second liquid (JP2, pH=6.8) of the Japanese Pharmacopoeia, were evaluated.

hα4 and β1 integrins = target: T1, hα4 and β1 integrins (Homo sapiens, UniProt P05556+P13612); assay: In vitro inhibition of binding between CHO cells expressing hα4 and β1 integrins and Eu3+-hVCAM-1 D1D7-IgG; conditions: for Ki: CHO cells expressing hα4 and β1 integrins, Eu3+-hVCAM-1 D1D7-IgG ligand, without HSA; for IC50: in the presence of 3% human serum albumin (HSA final concentration 3%)
T1 construct: expressed in transfected cells; host or cells: CHO cells
Method in brief: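 Bound europium-labelled VCAM-1 D1D7-IgG on α4β1-expressing CHO cells was measured by time-resolved fluorescence after washing at 4 °C. Ligand (2 nM working dilution) and test compound, with or without 3% final HSA, were co-incubated for 1 h at room temperature in Mn²⁺-containing HEPES buffer, pH 7.5. IC50 came from % binding inhibition; Ki was calculated from ligand concentration and Scatchard Kd.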

[2] = first liquid of the Japanese Pharmacopoeia (JP1), pH 1.2, simulated gastric fluid, First liquid of Japanese Pharmacopoeia (μg/mL), JP1, pH=1.2
[3] = second liquid of the Japanese Pharmacopoeia (JP2), pH 6.8, aqueous buffer, Second liquid of Japanese Pharmacopoeia (μg/mL), JP2, pH=6.8

T1 sequence (P13612 34-1032): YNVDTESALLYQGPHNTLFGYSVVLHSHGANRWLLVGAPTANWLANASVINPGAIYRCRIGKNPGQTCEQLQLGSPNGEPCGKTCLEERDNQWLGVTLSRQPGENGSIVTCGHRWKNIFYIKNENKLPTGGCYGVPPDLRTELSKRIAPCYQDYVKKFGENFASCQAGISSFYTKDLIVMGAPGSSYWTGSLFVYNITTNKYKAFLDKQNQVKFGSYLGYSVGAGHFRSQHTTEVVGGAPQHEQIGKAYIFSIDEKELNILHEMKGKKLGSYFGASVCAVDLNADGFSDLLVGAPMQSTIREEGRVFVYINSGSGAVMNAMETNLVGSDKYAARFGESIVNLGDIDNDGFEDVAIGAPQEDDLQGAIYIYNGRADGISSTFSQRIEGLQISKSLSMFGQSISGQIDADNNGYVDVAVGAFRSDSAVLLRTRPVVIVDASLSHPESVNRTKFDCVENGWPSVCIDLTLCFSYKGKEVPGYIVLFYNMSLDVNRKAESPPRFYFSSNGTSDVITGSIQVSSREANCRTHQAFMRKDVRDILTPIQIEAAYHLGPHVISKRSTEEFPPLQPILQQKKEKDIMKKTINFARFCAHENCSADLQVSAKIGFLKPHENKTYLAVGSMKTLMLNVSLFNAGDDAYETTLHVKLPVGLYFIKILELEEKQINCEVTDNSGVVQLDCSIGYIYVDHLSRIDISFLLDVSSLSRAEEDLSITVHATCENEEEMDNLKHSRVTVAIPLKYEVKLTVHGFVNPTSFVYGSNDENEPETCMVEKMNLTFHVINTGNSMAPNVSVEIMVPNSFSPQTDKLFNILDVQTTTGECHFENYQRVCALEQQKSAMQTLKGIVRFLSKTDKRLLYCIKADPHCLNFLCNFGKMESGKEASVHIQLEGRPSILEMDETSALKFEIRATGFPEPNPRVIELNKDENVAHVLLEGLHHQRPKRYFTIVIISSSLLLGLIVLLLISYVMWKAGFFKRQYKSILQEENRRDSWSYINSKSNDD
T1 sequence (P05556 21-798): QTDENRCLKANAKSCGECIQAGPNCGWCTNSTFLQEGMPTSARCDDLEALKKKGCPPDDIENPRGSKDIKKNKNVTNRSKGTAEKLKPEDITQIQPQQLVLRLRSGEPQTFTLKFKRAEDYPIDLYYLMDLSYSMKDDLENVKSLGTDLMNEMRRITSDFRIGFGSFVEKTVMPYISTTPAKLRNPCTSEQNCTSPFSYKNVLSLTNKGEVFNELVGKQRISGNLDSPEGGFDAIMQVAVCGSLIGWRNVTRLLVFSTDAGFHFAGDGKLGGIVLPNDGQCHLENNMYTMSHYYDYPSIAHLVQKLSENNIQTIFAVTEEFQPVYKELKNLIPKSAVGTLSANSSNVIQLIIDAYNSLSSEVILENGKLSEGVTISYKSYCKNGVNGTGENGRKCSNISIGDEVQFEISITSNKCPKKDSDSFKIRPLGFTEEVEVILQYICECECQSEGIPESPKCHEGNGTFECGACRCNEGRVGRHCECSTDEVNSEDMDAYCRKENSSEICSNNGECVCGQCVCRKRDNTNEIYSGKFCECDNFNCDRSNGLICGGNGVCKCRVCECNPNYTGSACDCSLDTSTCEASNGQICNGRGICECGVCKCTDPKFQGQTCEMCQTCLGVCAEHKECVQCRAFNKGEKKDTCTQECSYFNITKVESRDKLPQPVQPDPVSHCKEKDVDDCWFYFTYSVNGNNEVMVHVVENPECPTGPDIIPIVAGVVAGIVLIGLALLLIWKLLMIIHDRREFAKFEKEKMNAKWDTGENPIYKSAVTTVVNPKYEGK

Structure (SMILES) | solubility [1, 2] | solubility [1, 3] | Ki (hα4 and β1 integrins) | IC50 (hα4 and β1 integrins) | Solubility, Second liquid of Japanese Pharmacopoeia ([1]; JP2, pH=6.8)
COC1CN([C@H]2C[C@@H](CO[C@H]3CC[C@H](C(=O)O)CC3)N(C(=O)Cc3cc(Cl)c(NC(=O)c4cn(C)c5ccccc45)cc3F)C2)C1 [Example 1] | > 2000 µg/mL | > 2000 µg/mL | 1.9 nM | 15 nM | –
COCCC1CN([C@H]2C[C@@H](CO[C@H]3CC[C@H](C(=O)O)CC3)N(C(=O)Cc3cc(Cl)c(NC(=O)c4csc5ccccc45)cc3F)C2)C1 [Example 12, Trans-4-[1-[[4-[(benzo[b]thiophen-3-ylcarbonyl)amino]-5-chloro-2-fluorophenyl]acetyl]-(4S)-[3-(2-methoxyethyl)azetidin-1-yl]-(2S)-pyrrolidinylmethoxy]cyclohexanecarboxylic acid] | 1910 µg/mL (≈ 2780 µM) | 1690 µg/mL (≈ 2460 µM) | 1 nM | 8.6 nM | –
Cn1cc(C(=O)Nc2cc(Cl)c(CC(=O)N3C[C@@H](N4CC(C)(C)C4)C[C@H]3CO[C@H]3CC[C@H](C(=O)O)CC3)cc2Cl)c2ccccc21 [Example 15, Trans-4-[1-[[2,5-dichloro-4-[(1-methyl-1H-indol-3-ylcarbonyl)amino]phenyl]acetyl]-(4S)-(3,3-dimethylazetidin-1-yl)-(2S)-pyrrolidinylmethoxy]cyclohexanecarboxylic acid] | 1100 µg/mL (≈ 1640 µM) | 1100 µg/mL (≈ 1640 µM) | – | – | –
CCOC1CN([C@H]2C[C@@H](CO[C@H]3CC[C@H](C(=O)O)CC3)N(C(=O)Cc3cc(Cl)c(NC(=O)c4cn(C)c5ccccc45)cc3Cl)C2)C1 [Example 20, Trans-4-[1-[[2,5-dichloro-4-[(1-methyl-1H-indol-3-ylcarbonyl)amino]phenyl]acetyl]-(4S)-(3-ethoxyazetidin-1-yl)-(2S)-pyrrolidinylmethoxy]cyclohexanecarboxylic acid] | > 2000 µg/mL | 1920 µg/mL (≈ 2800 µM) | 3.9 nM | 40 nM | –
O=C(Nc1cc(F)c(CC(=O)N2C[C@@H](N3CC(N4CCOCC4)C3)C[C@H]2CO[C@H]2CC[C@H](C(=O)O)CC2)cc1Cl)c1csc2ccccc12 [Example 27, Trans-4-[1-[[4-[(benzo[b]thiophen-3-ylcarbonyl)amino]-5-chloro-2-fluorophenyl]acetyl]-(4S)-[3-(4-morpholinyl)azetidin-1-yl]-(2S)-pyrrolidinylmethoxy]cyclohexanecarboxylic acid] | 1000 µg/mL (≈ 1400 µM) | 1000 µg/mL (≈ 1400 µM) | 3.8 nM | 43 nM | –
O=C(Nc1cc(F)c(CC(=O)N2C[C@@H](N3CC(N4CCCCC4)C3)C[C@H]2CO[C@H]2CC[C@H](C(=O)O)CC2)cc1Cl)c1csc2ccccc12 [Example 28, Trans-4-[1-[[4-[(benzo[b]thiophen-3-ylcarbonyl)amino]-5-chloro-2-fluorophenyl]acetyl]-(4S)-[3-(piperidin-1-yl)azetidin-1-yl]-(2S)-pyrrolidinylmethoxy]cyclohexanecarboxylic acid] | 1100 µg/mL (≈ 1550 µM) | 1100 µg/mL (≈ 1550 µM) | 2.6 nM | 12 nM | –
CN(C)CC1CN([C@H]2C[C@@H](CO[C@H]3CC[C@H](C(=O)O)CC3)N(C(=O)Cc3cc(Cl)c(NC(=O)c4cn(C)c5ccccc45)cc3F)C2)C1 [Example 29, Trans-4-[1-[[5-chloro-2-fluoro-4-[(1-methyl-1H-indol-3-ylcarbonyl)amino]phenyl]acetyl]-(4S)-[3-(N,N-dimethylaminomethyl)azetidin-1-yl]-(2S)-pyrrolidinylmethoxy]cyclohexane carboxylic acid] | 1000 µg/mL (≈ 1470 µM) | 1000 µg/mL (≈ 1470 µM) | 4.2 nM | 12 nM | –
O=C(Nc1cc(F)c(CC(=O)N2C[C@@H](N3CC(CN4CCOCC4)C3)C[C@H]2CO[C@H]2CC[C@H](C(=O)O)CC2)cc1Cl)c1coc2ccccc12 [Example 30, Trans-4-[1-[[4-[(benzo[b]furan-3-ylcarbonyl)amino]-5-chloro-2-fluorophenyl]acetyl]-(4S)-[3-(4-morpholinylmethyl)azetidin-1-yl]-(2S)-pyrrolidinylmethoxy]cyclohexanecarboxylic acid] | 1100 µg/mL (≈ 1550 µM) | 1100 µg/mL (≈ 1550 µM) | 4.6 nM | 12 nM | –
O=C(Nc1cc(Cl)c(CC(=O)N2C[C@@H](N3CCCC3)C[C@H]2CO[C@H]2CC[C@H](C(=O)O)CC2)cc1Cl)c1csc2ccccc12 [Example 31, Trans-4-[1-[[4-[(benzo[b]thiophen-3-ylcarbonyl)amino]-2,5-dichlorophenyl]acetyl]-(4S)-(pyrrolidin-1-yl)-(2S)-pyrrolidinylmethoxy]cyclohexanecarboxylic acid] | 1840 µg/mL (≈ 2800 µM) | 1680 µg/mL (≈ 2560 µM) | 1.2 nM | 5.8 nM | –
CO[C@@H]1CCN([C@H]2C[C@@H](CO[C@H]3CC[C@H](C(=O)O)CC3)N(C(=O)Cc3cc(Cl)c(NC(=O)c4csc5ccccc45)cc3F)C2)C1 [Example 32, Trans-4-[1-[[4-[(benzo[b]thiophen-3-ylcarbonyl)amino]-5-chloro-2-fluorophenyl]acetyl]-(4S)-[(3R)-methoxypyrrolidin-1-yl]-(2S)-pyrrolidinylmethoxy]cyclohexanecarboxylic acid] | 1700 µg/mL (≈ 2530 µM) | 1690 µg/mL (≈ 2510 µM) | 0.74 nM | 3.5 nM | –
CO[C@@H]1CCN([C@H]2C[C@@H](CO[C@H]3CC[C@H](C(=O)O)CC3)N(C(=O)Cc3cc(Cl)c(NC(=O)c4cn(C)c5ccccc45)cc3Cl)C2)C1 [Example 33, Trans-4-[1-[[2,5-dichloro-4-[(1-methyl-1H-indol-3-ylcarbonyl)amino]phenyl]acetyl]-(4S)-[(3R)-methoxypyrrolidin-1-yl]-(2S)-pyrrolidinylmethoxy]cyclohexanecarboxylic acid] | > 2000 µg/mL | > 2000 µg/mL | 5.6 nM | 20 nM | –
CCO[C@@H]1CCN([C@H]2C[C@@H](CO[C@H]3CC[C@H](C(=O)O)CC3)N(C(=O)Cc3cc(Cl)c(NC(=O)c4csc5ccccc45)cc3F)C2)C1 [Example 34, Trans-4-[1-[[4-[(benzo[b]thiophen-3-ylcarbonyl)amino]-5-chloro-2-fluorophenyl]acetyl]-(4S)-[(3R)-ethoxypyrrolidin-1-yl]-(2S)-pyrrolidinylmethoxy]cyclohexanecarboxylic acid] | > 2000 µg/mL | 1640 µg/mL (≈ 2390 µM) | 2 nM | 9.9 nM | –
CO[C@H]1CCN([C@H]2C[C@@H](CO[C@H]3CC[C@H](C(=O)O)CC3)N(C(=O)Cc3cc(Cl)c(NC(=O)c4cn(C)c5ccccc45)cc3Cl)C2)C1 [Example 35, Trans-4-[1-[[2,5-dichloro-4-[(1-methyl-1H-indol-3-ylcarbonyl)amino]phenyl]acetyl]-(4S)-[(3S)-methoxypyrrolidin-1-yl]-(2S)-pyrrolidinylmethoxy]cyclohexanecarboxylic acid] | > 2000 µg/mL | > 2000 µg/mL | 5.9 nM | 20 nM | –
CCO[C@H]1CCN([C@H]2C[C@@H](CO[C@H]3CC[C@H](C(=O)O)CC3)N(C(=O)Cc3cc(Cl)c(NC(=O)c4cn(C)c5ccccc45)cc3Cl)C2)C1 [Example 36, Trans-4-[1-[[2,5-dichloro-4-[(1-methyl-1H-indol-3-ylcarbonyl)amino]phenyl]acetyl]-(4S)-[(3S)-ethoxypyrrolidin-1-yl]-(2S)-pyrrolidinylmethoxy]cyclohexanecarboxylic acid] | 1940 µg/mL (≈ 2770 µM) | 1840 µg/mL (≈ 2630 µM) | 5.9 nM | 24 nM | –
CN(C)C(=O)[C@@H]1CCCN1[C@H]1C[C@@H](CO[C@H]2CC[C@H](C(=O)O)CC2)N(C(=O)Cc2cc(Cl)c(NC(=O)c3csc4ccccc34)cc2F)C1 [Example 42] | > 2000 µg/mL | > 2000 µg/mL | 0.32 nM | 1.1 nM | 1931 µg/mL
COC[C@@H]1C[C@H](OC)CN1[C@H]1C[C@@H](CO[C@H]2CC[C@H](C(=O)O)CC2)N(C(=O)Cc2cc(Cl)c(NC(=O)c3cn(C)c4ccccc34)cc2Cl)C1 [Example 46, Trans-4-[1-[[2,5-dichloro-4-[(1-methyl-1H-indol-3-ylcarbonyl)amino]phenyl]acetyl]-(4S)-[(2S)-methoxymethyl-(4S)-methoxypyrrolidin-1-yl]-(2S)-pyrrolidinylmethoxy]cyclohexanecarboxylic acid] | 1200 µg/mL (≈ 1640 µM) | 1200 µg/mL (≈ 1640 µM) | 7.3 nM | 15 nM | –
CO[C@H]1CN([C@H]2C[C@@H](CO[C@H]3CC[C@H](C(=O)O)CC3)N(C(=O)Cc3cc(Cl)c(NC(=O)c4cn(C)c5ccccc45)cc3Cl)C2)C[C@@H]1OC [Example 51, Trans-4-[1-[[2,5-dichloro-4-[(1-methyl-1H-indol-3-ylcarbonyl)amino]phenyl]acetyl]-(4S)-[(3S,4S)-dimethoxypyrrolidin-1-yl]-(2S)-pyrrolidinylmethoxy]cyclohexanecarboxylic acid] | 1000 µg/mL (≈ 1400 µM) | 1000 µg/mL (≈ 1400 µM) | 5.8 nM | 18 nM | –
CO[C@H]1CN([C@H]2C[C@@H](CO[C@H]3CC[C@H](C(=O)O)CC3)N(C(=O)Cc3cc(Cl)c(NC(=O)c4csc5ccccc45)cc3F)C2)C[C@@H]1OC [Example 52, Trans-4-[1-[[4-[(benzo[b]thiophen-3-ylcarbonyl)amino]-5-chloro-2-fluorophenyl]acetyl]-(4S)-[(3S,4S)-dimethoxypyrrolidin-1-yl]-(2S)-pyrrolidinylmethoxy]cyclohexanecarboxylic acid] | 1000 µg/mL (≈ 1420 µM) | 1000 µg/mL (≈ 1420 µM) | 1.2 nM | 8.4 nM | –
